Laboratory results: patent US10501461B2, “Tyrosine amide derivatives as Rho-kinase inhibitors” (CHIESI FARMACEUTICI S.P.A., priority 2017, dated 2019)

Tests used:
Rho kinase 2 (ROCK-II) = Rho kinase 2 (ROCK-II) (Homo sapiens, UniProt O75116); experiment: In vitro Rho kinase inhibitory activity assay (ADP-Glo), Rho kinase 2; type: biochemical; conditions: 10 μM ATP, 25° C., expressed as range of activity
Procedure, shortened: (§1)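 Each kinase (ROCK1 or ROCK2) sat with compound for 30 min at 25 °C before 10 μM ATP started a 1 h reaction on 2.5 μM myelin basic protein (Tris pH 7.5, MgCl2, BSA, DTT, 1% DMSO). ADP formed was read by ADP-Glo luminescence. Dose-response IC50s were converted to Ki by Cheng-Prusoff.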

Rho kinase 1 (ROCK-I) = Rho kinase 1 (ROCK-I) (Homo sapiens, UniProt Q13464); experiment: In vitro Rho kinase inhibitory activity assay (ADP-Glo), Rho kinase 1; type: biochemical; conditions: 10 μM ATP, 25° C., expressed as range of activity
Procedure, shortened: as §1

Chain of Rho kinase 2 (ROCK-II) (O75116 whole entry): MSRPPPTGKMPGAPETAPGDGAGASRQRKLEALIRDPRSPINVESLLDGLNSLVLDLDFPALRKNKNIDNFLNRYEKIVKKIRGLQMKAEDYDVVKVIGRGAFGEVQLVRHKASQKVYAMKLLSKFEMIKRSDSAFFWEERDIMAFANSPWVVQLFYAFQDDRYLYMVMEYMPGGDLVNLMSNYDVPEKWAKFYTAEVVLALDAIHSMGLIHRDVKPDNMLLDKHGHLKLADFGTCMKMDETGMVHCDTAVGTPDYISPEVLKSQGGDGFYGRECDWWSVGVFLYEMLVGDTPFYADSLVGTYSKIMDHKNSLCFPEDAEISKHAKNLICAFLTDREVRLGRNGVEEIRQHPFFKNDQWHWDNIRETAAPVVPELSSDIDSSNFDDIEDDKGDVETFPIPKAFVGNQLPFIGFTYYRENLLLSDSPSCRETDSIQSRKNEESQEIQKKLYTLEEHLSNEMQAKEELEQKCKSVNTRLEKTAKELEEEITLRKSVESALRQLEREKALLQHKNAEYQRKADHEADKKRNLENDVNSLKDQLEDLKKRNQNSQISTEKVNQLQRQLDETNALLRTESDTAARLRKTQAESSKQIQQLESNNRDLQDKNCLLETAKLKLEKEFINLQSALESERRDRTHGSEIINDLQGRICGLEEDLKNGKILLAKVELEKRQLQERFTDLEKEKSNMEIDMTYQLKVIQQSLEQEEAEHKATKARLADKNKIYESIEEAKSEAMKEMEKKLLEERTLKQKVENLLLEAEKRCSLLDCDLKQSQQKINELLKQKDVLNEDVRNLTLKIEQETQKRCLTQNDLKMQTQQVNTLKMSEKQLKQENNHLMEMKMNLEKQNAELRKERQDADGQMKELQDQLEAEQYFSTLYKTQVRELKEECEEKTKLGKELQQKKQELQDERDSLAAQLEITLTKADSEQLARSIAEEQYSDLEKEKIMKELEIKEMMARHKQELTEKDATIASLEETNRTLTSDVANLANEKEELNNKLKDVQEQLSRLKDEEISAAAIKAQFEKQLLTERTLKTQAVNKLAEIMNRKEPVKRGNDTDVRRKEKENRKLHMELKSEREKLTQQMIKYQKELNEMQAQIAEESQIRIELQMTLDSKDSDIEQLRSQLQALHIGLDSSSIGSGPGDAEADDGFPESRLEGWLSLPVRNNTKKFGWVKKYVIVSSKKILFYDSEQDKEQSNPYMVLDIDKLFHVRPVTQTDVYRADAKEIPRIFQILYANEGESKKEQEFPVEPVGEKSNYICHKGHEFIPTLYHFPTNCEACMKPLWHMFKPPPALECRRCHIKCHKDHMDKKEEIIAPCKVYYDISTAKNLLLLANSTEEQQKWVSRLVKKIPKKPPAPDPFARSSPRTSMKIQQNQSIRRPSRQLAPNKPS
Chain of Rho kinase 1 (ROCK-I) (Q13464 whole entry): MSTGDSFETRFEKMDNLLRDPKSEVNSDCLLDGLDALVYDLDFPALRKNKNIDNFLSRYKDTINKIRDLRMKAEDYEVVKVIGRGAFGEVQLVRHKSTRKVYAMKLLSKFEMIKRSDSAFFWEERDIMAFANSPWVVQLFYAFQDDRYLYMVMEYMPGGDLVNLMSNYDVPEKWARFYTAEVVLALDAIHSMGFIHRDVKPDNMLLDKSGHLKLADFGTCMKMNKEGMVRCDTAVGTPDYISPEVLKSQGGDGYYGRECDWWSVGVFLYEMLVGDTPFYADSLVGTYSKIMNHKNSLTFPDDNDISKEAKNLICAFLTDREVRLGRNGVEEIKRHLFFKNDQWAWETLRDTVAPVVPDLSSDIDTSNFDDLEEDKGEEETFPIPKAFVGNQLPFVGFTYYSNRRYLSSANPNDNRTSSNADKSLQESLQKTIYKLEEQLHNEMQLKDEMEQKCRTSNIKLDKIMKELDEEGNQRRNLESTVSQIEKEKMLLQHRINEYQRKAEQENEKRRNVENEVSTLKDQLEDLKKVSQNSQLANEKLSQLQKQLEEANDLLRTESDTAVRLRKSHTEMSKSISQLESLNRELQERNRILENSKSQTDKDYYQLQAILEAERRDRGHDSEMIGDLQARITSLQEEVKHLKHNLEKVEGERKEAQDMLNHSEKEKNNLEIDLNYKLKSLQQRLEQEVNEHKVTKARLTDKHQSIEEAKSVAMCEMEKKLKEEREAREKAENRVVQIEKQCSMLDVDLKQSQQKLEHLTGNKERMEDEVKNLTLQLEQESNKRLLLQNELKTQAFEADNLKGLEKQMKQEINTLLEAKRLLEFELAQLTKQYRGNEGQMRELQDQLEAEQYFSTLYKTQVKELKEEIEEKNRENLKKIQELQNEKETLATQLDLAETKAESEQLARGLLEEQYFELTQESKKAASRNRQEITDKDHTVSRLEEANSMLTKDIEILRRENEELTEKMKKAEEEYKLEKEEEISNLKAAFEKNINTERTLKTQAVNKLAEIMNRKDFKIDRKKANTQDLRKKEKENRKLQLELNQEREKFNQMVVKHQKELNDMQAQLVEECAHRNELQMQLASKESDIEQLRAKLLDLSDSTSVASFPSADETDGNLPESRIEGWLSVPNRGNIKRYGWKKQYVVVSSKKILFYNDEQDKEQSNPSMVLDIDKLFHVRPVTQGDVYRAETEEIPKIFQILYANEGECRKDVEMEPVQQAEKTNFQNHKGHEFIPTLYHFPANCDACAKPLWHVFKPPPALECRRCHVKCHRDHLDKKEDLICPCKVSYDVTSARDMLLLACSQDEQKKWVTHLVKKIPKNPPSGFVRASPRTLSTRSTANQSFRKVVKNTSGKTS

Compound | Ki (Rho kinase 2 (ROCK-II)) | Ki (Rho kinase 1 (ROCK-I))
Cc1c[nH]c2ncnc(Oc3ccc(C[C@H](N)C(=O)NCCCN(C)C)cc3F)c12 [Example 116, (S)-2-amino-N-(3-(dimethylamino)propyl)-3-(3-fluoro-4-((5-methyl-7H-pyrrolo[2,3-d]pyrimidin-4-yl)oxy)phenyl)propanamide] | 3 to 30 nM | 3 to 30 nM
Cc1c[nH]c2ncnc(Oc3ccc(C[C@H](N)C(=O)NC4CCN(C)CC4)cc3F)c12 [Example 117, (S)-2-amino-3-(3-fluoro-4-((5-methyl-7H-pyrrolo[2,3-d]pyrimidin-4-yl)oxy)phenyl)-N-(1-methylpiperidin-4-yl)propanamide] | 3 to 30 nM | 3 to 30 nM
Cc1c[nH]c2ncnc(Oc3ccc(C[C@H](N)C(=O)N4CCN(C)CC4)cc3F)c12 [Example 118, (S)-2-amino-3-(3-fluoro-4-((5-methyl-7H-pyrrolo[2,3-d]pyrimidin-4-yl)oxy)phenyl)-1-(4-methylpiperazin-1-yl)propan-1-one] | 3 to 30 nM | 3 to 30 nM
Cc1c[nH]c2ncnc(Oc3ccc(C[C@H](N)C(=O)N4CCN(C5CC5)CC4)cc3F)c12 [Example 119, (S)-2-amino-1-(4-cyclopropylpiperazin-1-yl)-3-(3-fluoro-4-((5-methyl-7H-pyrrolo[2,3-d]pyrimidin-4-yl)oxy)phenyl)propan-1-one] | < 3 nM | < 3 nM
Cc1c[nH]c2ncnc(Oc3ccc(C[C@H](N)C(=O)N4CCN(Cc5ccccn5)CC4)cc3F)c12 [Example 120, (S)-2-amino-3-(3-fluoro-4-((5-methyl-7H-pyrrolo[2,3-d]pyrimidin-4-yl)oxy)phenyl)-1-(4-(pyridin-2-ylmethyl)piperazin-1-yl)propan-1-one] | < 3 nM | 3 to 30 nM
Cc1c[nH]c2ncnc(Oc3ccc(C[C@H](N)C(=O)N4C[C@@H]5C[C@H]4CN5C)cc3F)c12 [Example 121, 2-amino-3-(3-fluoro-4-((5-methyl-7H-pyrrolo[2,3-d]pyrimidin-4-yl)oxy)phenyl)-1-((1S,4S)-5-methyl-2,5-diazabicyclo[2.2.1]heptan-2-yl)propan-1-one] | 3 to 30 nM | 3 to 30 nM
Cc1c[nH]c2ncnc(Oc3ccc(C[C@H](N)C(=O)N4CCC(c5ccncc5)CC4)cc3F)c12 [Example 122, (S)-2-amino-3-(3-fluoro-4-((5-methyl-7H-pyrrolo[2,3-d]pyrimidin-4-yl)oxy)phenyl)-1-(4-(pyridin-4-yl)piperidin-1-yl)propan-1-one] | < 3 nM | 3 to 30 nM
Cc1c[nH]c2ncnc(Oc3ccc(C[C@H](N)C(=O)N4CCC(O)(Cc5ccccc5)CC4)cc3F)c12 [Example 123, (S)-2-amino-1-(4-benzyl-4-hydroxypiperidin-1-yl)-3-(3-fluoro-4-((5-methyl-7H-pyrrolo[2,3-d]pyrimidin-4-yl)oxy)phenyl)propan-1-one] | < 3 nM | < 3 nM
Cc1c[nH]c2ncnc(Oc3ccc(C[C@H](N)C(=O)N4CCc5ccccc5C4)cc3F)c12 [Example 124, (S)-2-amino-1-(3,4-dihydroisoquinolin-2(1H)-yl)-3-(3-fluoro-4-((5-methyl-7H-pyrrolo[2,3-d]pyrimidin-4-yl)oxy)phenyl)propan-1-one] | < 3 nM | < 3 nM
Cc1c[nH]c2ncnc(Oc3ccc(C[C@H](N)C(=O)NC4CCOCC4)cc3F)c12 [Example 125, (S)-2-amino-3-(3-fluoro-4-((5-methyl-7H-pyrrolo[2,3-d]pyrimidin-4-yl)oxy)phenyl)-N-(tetrahydro-2H-pyran-4-yl)propanamide] | 3 to 30 nM | 3 to 30 nM
Cc1c[nH]c2ncnc(Oc3ccc(C[C@H](N)C(=O)N4CCC(Oc5cccnc5)CC4)cc3F)c12 [Example 126, (S)-2-amino-3-(3-fluoro-4-((5-methyl-7H-pyrrolo[2,3-d]pyrimidin-4-yl)oxy)phenyl)-1-(4-(pyridin-3-yloxy)piperidin-1-yl)propan-1-one] | 3 to 30 nM | 3 to 30 nM
Cc1c[nH]c2ncnc(Oc3ccc(C[C@H](N)C(=O)N4CCC(S(=O)(=O)c5ccccc5)CC4)cc3F)c12 [Example 127, (S)-2-amino-3-(3-fluoro-4-((5-methyl-7H-pyrrolo[2,3-d]pyrimidin-4-yl)oxy)phenyl)-1-(4-(phenylsulfonyl)piperidin-1-yl)propan-1-one] | < 3 nM | < 3 nM
Cc1c[nH]c2ncnc(Oc3ccc(C[C@H](N)C(=O)NCCc4ccncc4)cc3F)c12 [Example 128, (S)-2-amino-3-(3-fluoro-4-((5-methyl-7H-pyrrolo[2,3-d]pyrimidin-4-yl)oxy)phenyl)-N-(2-(pyridin-4-yl)ethyl)propanamide] | < 3 nM | < 3 nM
Cc1c[nH]c2ncnc(Oc3ccc(C[C@H](N)C(=O)N4C[C@@H](C)N(C)[C@@H](C)C4)cc3F)c12 [Example 129, (S)-2-amino-3-(3-fluoro-4-((5-methyl-7H-pyrrolo[2,3-d]pyrimidin-4-yl)oxy)phenyl)-1-((3S,5R)-3,4,5-trimethylpiperazin-1-yl)propan-1-one] | < 3 nM | < 3 nM
N#Cc1c[nH]c2ncnc(Oc3ccc(C[C@H](N)C(=O)N4CCN(Cc5ccccc5)CC4)cc3F)c12 [Example 130, (S)-4-(4-(2-amino-3-(4-benzylpiperazin-1-yl)-3-oxopropyl)-2-fluorophenoxy)-7H-pyrrolo[2,3-d]pyrimidine-5-carbonitrile] | < 3 nM | < 3 nM
CN[C@@H](Cc1ccc(Oc2ccnc3[nH]ccc23)cc1)C(=O)NC1CCCCC1 [Example 131, (S)-3-(4-((1H-pyrrolo[2,3-b]pyridin-4-yl)oxy)phenyl)-N-cyclohexyl-2-(methylamino)propanamide] | < 3 nM | 3 to 30 nM
Cc1c[nH]c2nccc(Oc3ccc(CC(N)C(=O)N4CCN(Cc5ccccc5)CC4)cc3F)c12 (stereo not drawn) [Example 132, 2-amino-1-(4-benzylpiperazin-1-yl)-3-(3-fluoro-4-((3-methyl-1H-pyrrolo[2,3-b]pyridin-4-yl)oxy)phenyl)propan-1-one] | < 3 nM | < 3 nM
CC(=O)N1CCN(C(=O)C(N)Cc2ccc(Oc3ccnc4[nH]cc(C)c34)c(F)c2)CC1 (stereo not drawn) [Example 133, 1-(4-acetylpiperazin-1-yl)-2-amino-3-(3-fluoro-4-((3-methyl-1H-pyrrolo[2,3-b]pyridin-4-yl)oxy)phenyl)propan-1-one] | < 3 nM | < 3 nM
Cc1c[nH]c2nccc(Oc3ccc(C[C@H](N)C(=O)N(C)C4CCCCC4)cc3)c12 [Example 134, (S)-2-amino-N-cyclohexyl-N-methyl-3-(4-((3-methyl-1H-pyrrolo[2,3-b]pyridin-4-yl)oxy)phenyl)propanamide] | < 3 nM | < 3 nM
Cc1c[nH]c2nccc(Oc3ccc(C[C@H](N)C(=O)NCc4ccccc4)cc3)c12 [Example 135, (S)-2-amino-N-benzyl-3-(4-((3-methyl-1H-pyrrolo[2,3-b]pyridin-4-yl)oxy)phenyl)propanamide] | < 3 nM | < 3 nM
Cc1c[nH]c2nccc(Oc3ccc(C[C@@H](N)C(=O)NCc4ccccc4)cc3)c12 [Example 136, (R)-2-amino-N-benzyl-3-(4-((3-methyl-1H-pyrrolo[2,3-b]pyridin-4-yl)oxy)phenyl)propanamide] | 3 to 30 nM | 3 to 30 nM
Cc1c[nH]c2nccc(Oc3ccc(C[C@H](N)C(=O)Nc4ccccc4)cc3)c12 [Example 137, (S)-2-amino-3-(4-((3-methyl-1H-pyrrolo[2,3-b]pyridin-4-yl)oxy)phenyl)-N-phenylpropanamide] | < 3 nM | < 3 nM
Cc1c[nH]c2nccc(Oc3ccc(C[C@@H](N)C(=O)Nc4ccccc4)cc3)c12 [Example 138, (R)-2-amino-3-(4-((3-methyl-1H-pyrrolo[2,3-b]pyridin-4-yl)oxy)phenyl)-N-phenylpropanamide] | 3 to 30 nM | 3 to 30 nM
Cc1c[nH]c2nccc(Oc3ccc(C[C@H](N)C(=O)NCC4CCCCC4)cc3)c12 [Example 139, (S)-2-amino-N-(cyclohexylmethyl)-3-(4-((3-methyl-1H-pyrrolo[2,3-b]pyridin-4-yl)oxy)phenyl)propanamide] | < 3 nM | < 3 nM
Cc1c[nH]c2nccc(Oc3ccc(C[C@@H](N)C(=O)NCC4CCCCC4)cc3)c12 [Example 140, (R)-2-amino-N-(cyclohexylmethyl)-3-(4-((3-methyl-1H-pyrrolo[2,3-b]pyridin-4-yl)oxy)phenyl)propanamide] | 3 to 30 nM | 3 to 30 nM
Cc1c[nH]c2nccc(Oc3ccc(C[C@H](N)C(=O)NC4CCCCC4)cc3)c12 [Example 141, (S)-2-amino-N-cyclohexyl-3-(4-((3-methyl-1H-pyrrolo[2,3-b]pyridin-4-yl)oxy)phenyl)propanamide] | < 3 nM | < 3 nM
Cc1c[nH]c2nccc(Oc3ccc(C[C@@H](N)C(=O)NC4CCCCC4)cc3)c12 [Example 142, (R)-2-amino-N-cyclohexyl-3-(4-((3-methyl-1H-pyrrolo[2,3-b]pyridin-4-yl)oxy)phenyl)propanamide] | 3 to 30 nM | 3 to 30 nM
CN(CC1CCCCC1)C(=O)[C@H](N)Cc1ccc(Oc2ccnc3[nH]ccc23)cc1 [Example 143, (R)-3-(4-((1H-pyrrolo[2,3-b]pyridin-4-yl)oxy)phenyl)-2-amino-N-(cyclohexylmethyl)-N-methylpropanamide] | > 30 nM | > 30 nM
CN(Cc1ccccc1)C(=O)[C@H](N)Cc1ccc(Oc2ccnc3[nH]ccc23)cc1 [Example 144, (R)-3-(4-((1H-pyrrolo[2,3-b]pyridin-4-yl)oxy)phenyl)-2-amino-N-benzyl-N-methylpropanamide] | > 30 nM | > 30 nM
Cc1c[nH]c2nccc(Oc3ccc(C[C@H](N)C(=O)Nc4ccccc4)cc3F)c12 [Example 145, (S)-2-amino-3-(3-fluoro-4-((3-methyl-1H-pyrrolo[2,3-b]pyridin-4-yl)oxy)phenyl)-N-phenylpropanamide] | < 3 nM | < 3 nM
